Data from EP1170007A1, “REMEDIES” (Takara Shuzo Co, Ltd., priority 1999, dated 2000).
“And” between values parts separate entries of the source, which are not always exact repeats. Equal entries are not always repeated.

Tests used:
[1] = test system: human insulin-like growth factor-1 (h-IGF-1) production in Hs68 cells; assay: Enhancement of h-IGF-1 production in Hs68 cells (ELISA); assay type: cell-based; conditions: Example 3-(2): 10 to 20 µM
Method: (1) Human newborn foreskin […] Hs68 cells (ATCC CRL-1635) were cultured in a D-MEM medium (Bio Whittaker) containing 10% fetal calf serum (FBS; Gibco BRL) in the presence of 5% CO2 at 37°C to saturation in a culture vessel. Then, the cells were suspended in the medium at a concentration of 3 x 10^5/ml using a trypsin-EDTA solution (Bio Whittaker). 200 µl of the suspension was dispensed into each well of a 96-well microtiter plate. When the cells were almost saturated in the culture vessel after culturing for 5 days, the medium was discarded and a medium containing 4HCP at a concentration of 40, 100 or 200 µM was added thereto. The culture supernatant was recovered at intervals of 24 hours for up to 96 hours. The effect of 4HCP on enhancement of human insulin-like growth factor-1 (h-IGF-1) production in Hs68 cells was determined using ELISA-Kit for h-IGF-1 (Diagnostic System Labo).
(2) Hs68 cells were cultured in a D-MEM medium containing 10% fetal calf serum in the presence of 5% CO2 at 37°C to saturation in a culture vessel. Then, the cells were suspended in the medium at a concentration of 3 x 10^5/ml using a trypsin-EDTA solution. 200 µl of the suspension was dispensed into each well of a 96-well microtiter plate. When the cells were almost saturated in the culture vessel after culturing for 5 to 7 days, the medium was discarded and the medium containing cyclopentenone or GM at a concentration of 0, 2.5, 5, 10 or 20 µM was added thereto. The culture supernatant was recovered at 1, 3, 6, 12, 24 or 48 hours. The effect of cyclopentenone or GM on the production (enhancement of expression) of h-IGF-1 in Hs68 cells was determined using ELISA-Kit for h-IGF-1. […] The amount of h-IGF-1 produced 6 hours after the addition was about twice the amount for the control with no addition. […] (3) Hs68 cells were cultured in a D-MEM medium containing 10% fetal calf serum in the presence of 5% CO2 at 37°C to saturation in a culture vessel. Then, the cells were suspended in the medium at a concentration of 3 x 10^5/ml using a trypsin-EDTA solution. 200 µl of the suspension was dispensed into each well of a 96-well microtiter plate. When the cells were almost saturated in the culture vessel after culturing for 5 to 7 days, the medium was discarded and the medium containing 4HCP, a compound of formula (XVIII) (4HCP-GSH) or glutathione (GSH) at a concentration of 0, 25, 50, 100 or 200 µM was added thereto. The culture supernatant was recovered at 1, 3, 6, 12, 24 or 48 hours. The effect on the production (enhancement of expression) of h-IGF-1 in Hs68 cells was determined using ELISA-Kit for h-IGF-1. As a result, when 4HCP was added at a concentration of 25 to 200 µM, h-IGF production in Hs68 cells became maximal at 1 hour and decreased thereafter as the time went by. […] Significant enhancement of h-IGF-1 production was observed when cultured for 10 to 30 minutes. […]

interleukin-12 = assay: Intraperitoneal interleukin-12 in mice inoculated with Ehrlich cancer cells (ELISA); assay type: in vivo, ddY mouse; conditions: for Amount of intraperitoneal interleukin-12: 10 mg/kg intraperitoneally 1 day after inoculation, individual mice
Method: ddY mouse (female, 5 weeks old, weighing about 25 g) purchased from Japan SLC was used for experiments after preliminary breeding for 1 week. 1 x 10^6 Ehrlich cancer cells were intraperitoneally inoculated into the mouse. 10 mg/kg of cyclopentenone was intraperitoneally administered 1 day after the inoculation. The mouse was sacrificed by decapitating and exsanguinating 8 or 12 days after the inoculation with cancer cells. 2 ml, which is the same volume as that of ascites retained in the control mouse, of PBS (-) (Nissui Pharmaceutical) containing 1% bovine serum albumin (Sigma) was intraperitoneally injected into the mouse, which was recovered after extensive massage. For a control group, ascites was directly recovered. The recovered ascites and peritoneal lavage fluid were centrifuged at 2000 rpm for 5 minutes to recover supernatants. The supernatants were used to quantify the amounts of interleukin-12 using an ELISA kit for mouse interleukin-12 measurement (Endogen).

[2] = test system: nerve growth factor production by L-M cells; assay: Enhancement of nerve growth factor production in L-M cells (enzyme immunoassay); assay type: cell-based, Rat
Method: Rat fibroblast L-M cells (ATCC CCL-1.2) were suspended in a M199 medium (Gibco) containing 0.5% Bacto Peptone (Gibco) at a concentration of 1.0 x 10^5 cells/ml. 1 ml of the suspension was inoculated into each well of a 24-well plate. The cells were cultured aseptically. After culturing for 2 days, the medium was removed and substituted with a M199 medium containing 0.5% bovine serum albumin (Sigma). Then, cyclopentenone (final concentration of 1 to 25 µM), 4HCP (Aldrich) (final concentration of 12.5µM) or dipropionylcyclopentenone (final concentration of 3.1 to 9.4 µM) was added thereto. […]
After completion of the incubation, the concentration of nerve growth factor in the culture was measured by enzyme immunoassay (NGF Emax Immuno Assay System: Promega). […]

With `O=C1C=CC(O)C1O` (stereo not drawn) [cyclopentenone, 4,5-dihydroxy-2-cyclopenten-1-one] the “production of h-IGF-1 in Hs68 cells (result in words)” value [1] was “h-IGF-1 production was observed from 1-hour to 6 hours after the addition”, the “Amount of intraperitoneal interleukin-12” value (interleukin-12; After 8 Days, control group ND) was 11.0 pg/mL and 100.0 pg/mL and 25.0 pg/mL and the “Amount of intraperitoneal interleukin-12” value (interleukin-12; After 12 Days, control group all dead) was 43.0 pg/mL and 97.2 pg/mL and 66.4 pg/mL. For the same compound, the “activity of enhancing interleukin-12 production (result in words)” value (interleukin-12; Ehrlich cancer cell inoculated mice) was “an activity of enhancing interleukin-12 production by cyclopentenone was observed for each mouse”, the “Nerve growth factor concentration” value ([2]; 1 µM, 24 hours, 0 µM control 0.570) was 0.700 ng/mL and the “Nerve growth factor concentration” value ([2]; 2.5 µM, 24 hours, 0 µM control 0.570) was 0.740 ng/mL. The “Nerve growth factor concentration” value ([2]; 5 µM, 24 hours, 0 µM control 0.570) was 0.870 ng/mL, the “Nerve growth factor concentration” value ([2]; 7.5 µM, 24 hours, 0 µM control 0.570) was 0.900 ng/mL and the “Nerve growth factor concentration” value ([2]; 10 µM, 24 hours, 0 µM control 0.570) was 1.080 ng/mL. For the same compound, the “Nerve growth factor concentration” value ([2]; 12.5 µM, 24 hours, 0 µM control 0.570) was 1.340 ng/mL, the “Nerve growth factor concentration” value ([2]; 15 µM, 24 hours, 0 µM control 0.570) was 1.550 ng/mL and the “Nerve growth factor concentration” value ([2]; 17.5 µM, 24 hours, 0 µM control 0.570) was 2.150 ng/mL. For the same compound, the “Nerve growth factor concentration” value ([2]; 20 µM, 24 hours, 0 µM control 0.570) was 1.900 ng/mL, the “Nerve growth factor concentration” value ([2]; 25 µM, 24 hours, 0 µM control 0.570) was 1.540 ng/mL and the “production of nerve growth factor by L-M cells (result in words)” value ([2]; 24 hours incubation) was “enhanced the production of nerve growth factor by L-M cells in a concentration-dependent manner”. For the same compound, the “Nerve growth factor concentration” value ([2]; time course: 15 µM, cultivation time 0 hour, control 0.000) was 0.000 ng/mL, the “Nerve growth factor concentration” value ([2]; time course: 15 µM, cultivation time 3 hour, control 0.028) was 0.050 ng/mL and the “Nerve growth factor concentration” value ([2]; time course: 15 µM, cultivation time 6 hour, control 0.233) was 0.359 ng/mL. For the same compound, the “Nerve growth factor concentration” value ([2]; time course: 15 µM, cultivation time 12 hour, control 0.575) was 0.686 ng/mL, the “Nerve growth factor concentration” value ([2]; time course: 15 µM, cultivation time 24 hour, control 0.658) was 1.186 ng/mL and the “Nerve growth factor concentration” value ([2]; time course: 15 µM, cultivation time 48 hour, control 0.736) was 1.236 ng/mL. For the same compound, the “Nerve growth factor concentration” value ([2]; time course: 17.5 µM, cultivation time 0 hour, control 0.000) was 0.000 ng/mL, the “Nerve growth factor concentration” value ([2]; time course: 17.5 µM, cultivation time 3 hour, control 0.028) was 0.054 ng/mL and the “Nerve growth factor concentration” value ([2]; time course: 17.5 µM, cultivation time 6 hour, control 0.233) was 0.205 ng/mL. For the same compound, the “Nerve growth factor concentration” value ([2]; time course: 17.5 µM, cultivation time 12 hour, control 0.575) was 0.635 ng/mL, the “Nerve growth factor concentration” value ([2]; time course: 17.5 µM, cultivation time 24 hour, control 0.658) was 1.535 ng/mL and the “Nerve growth factor concentration” value ([2]; time course: 17.5 µM, cultivation time 48 hour, control 0.736) was 1.492 ng/mL. The “Nerve growth factor concentration” value ([2]; time course: 20 µM, cultivation time 0 hour, control 0.000) was 0.000 ng/mL, the “Nerve growth factor concentration” value ([2]; time course: 20 µM, cultivation time 3 hour, control 0.028) was 0.082 ng/mL and the “Nerve growth factor concentration” value ([2]; time course: 20 µM, cultivation time 6 hour, control 0.233) was 0.179 ng/mL. The “Nerve growth factor concentration” value ([2]; time course: 20 µM, cultivation time 12 hour, control 0.575) was 0.581 ng/mL, the “Nerve growth factor concentration” value ([2]; time course: 20 µM, cultivation time 24 hour, control 0.658) was 1.681 ng/mL and the “Nerve growth factor concentration” value ([2]; time course: 20 µM, cultivation time 48 hour, control 0.736) was 1.874 ng/mL.
